Data set [1] is described as follows: Solubility. The format is physicochemical. As to conditions: water at pH=7, 30° C.
The conditions of data set [2]: cited from earlier work.
The conditions of data set [3]: cited from earlier work. This is another data set of the same source.
Data set [4] is described as follows: Isothermal titration calorimetry (ITC) of CB[6] host with dicationic guest molecules. The conditions noted are these: in water at 30° C. Type of data set: binding. The method, then:
Isothermal titration calorimetry (ITC) was previously employed to study complexation parameters of Compound 1 [63]. Measurement of the host-guest binding thermodynamic profile using ITC provides in a single experiment not only the binding constants (Kb) and binding stoichiometry (n), but also the differences of enthalpy (ΔH) and entropy (ΔS) of binding.
The experiment was carried out by loading the ITC sample cell with saturated aqueous solution of Compound 1 (1.4 ml) and titrating it with a neutral aqueous solution of the dicationic dihydrochloride salts of various exemplary guest molecules at concentrations that ranged from 3.3 mM to 5.0 mM. The heat generated during each injection was recorded (FIG. 1) and the thermodynamic parameters were acquired by non-linear least squares fit of the calorimetric titration data to a one-site binding model (Table 2).
A saturated solution of Compound 1 (0.4 mM) in water at pH=7 was prepared by stirring an excess of finely powdered Compound 1 overnight at 30° C. and filtering through a 100-μm micro-filter. Solutions of the guest molecules at concentrations of 3.3-6 mM, were prepared and filtered through a 100-μm micro-filter as well. Titration calorimetry measurements were performed with a VP-ITC calorimeter (Microcal, Northampton, Mass.) as previously described. Repeat determinations indicated errors of 3-10% in n, ΔH, degree, and K values over the most favorable concentration range. A solution of Compound 1 was titrated by 29 injections of 6 μL of guest molecule solutions at 30° C. each, and the titration data were analyzed using Origin2000 software.

In brackets after ≈: the same amount, converted by molar mass. Read-outs that look alike come from different tables or passages of the source.

We go through seven compounds from patent US8715635B2, “Frictionless molecular rotary motors” (Technion Research & Development Foundation Limited, priority 2007, dated 2014).

As for `O=C1N2CN3C(=O)N4CN5C(=O)N6CN7C(=O)N8CN9C(=O)N%10CN%11C(=O)N%12CN1C1C2N2CN%13C(=O)N(CN%14C(=O)N(CN%15C(=O)N(CN%16C(=O)N(CN%17C(=O)N(CN1C2=O)C%12C%11%17)C%10C9%16)C8C7%15)C6C5%14)C4C3%13` (stereo not drawn) [Compound 1, Cucurbit[6]uril], the “concentration of saturated solution in water” value in data set [1] was 400 µM. For the same compound, the “solubility in aqueous acid” value in data set [2] (HCO2H/H2O (1:1)) is listed as 61 mM (≈ 60.8 mg/mL). In addition, the “pKa value of the conjugate acid” value in data set [3] is given as 3.02.

For the compound `Cl.Cl.NCC#CC#CCN` [Compound 4′, Hexa-2,4-diyne-1,6-diammonium dihydrochloride], in data set [4], the ΔH of binding is -0.696 ± 0.005 kcal/mol and the ΔS of binding came to 23.51.

As to `NCCCCCCN` [Compound 3′, 1,6-diaminohexane], in data set [4], the ΔH of binding is -13.760 ± 0.090 kcal/mol and the ΔS of binding is -20.4 cal/(mol·K). For the same compound, the “ΔS of binding (entropy term, text)” value in data set [4] (text values in J) is recorded as −85.77 J/mol.° K. The “ΔH binding enthalpy” value in data set [4] (text values in KJ) is -13.76 kcal/mol.

Turning to `Cl.Cl.NCC#CC#CCN1CCCC1` [Compound 5′, N-6-pyrrolidinium-hexa-2,4-diynyl ammonium dichloride], in data set [4], the ΔH of binding was -4.452 ± 0.057 kcal/mol and the ΔS of binding is 9.29 cal/(mol·K).

As to `O=C1N2CN3C(=O)N4CN5C(=O)N6CN7C(=O)N8CN9C(=O)N%10CN%11C(=O)N%12CN%13C(=O)N%14CN1C1C2N2CN%15C(=O)N(CN%16C(=O)N(CN%17C(=O)N(CN%18C(=O)N(CN%19C(=O)N(CN%20C(=O)N(CN1C2=O)C%14C%13%20)C%12C%11%19)C%10C9%18)C8C7%17)C6C5%16)C4C3%15` (stereo not drawn) [CB[7]], the “solubility in aqueous acid” value in data set [2] (3M HCl) is on record as “about 700 mM”.

For `C(C#CCN1CCCC1)#CCN1CCCC1.Cl.Cl` [Compound 6′, 1,6-Dipyrrolidinium-2,4-hexadiyne dichloride], in data set [4], the ΔH of binding was -3.718 ± 0.044 kcal/mol and the ΔS of binding is 12.8 cal/(mol·K).

For `O=C1N2CN3C(=O)N4CN5C(=O)N6CN7C(=O)N8CN9C(=O)N%10CN1C1C2N2CN%11C(=O)N(CN%12C(=O)N(CN%13C(=O)N(CN%14C(=O)N(CN1C2=O)C%10C9%14)C8C7%13)C6C5%12)C4C3%11` (stereo not drawn) [CB[5]], in data set [2] (3M HCl), the “solubility in aqueous acid” value was “about 60 mM”.
